The values that follow come from patent publication US10647713B2 (Nimbus Lakshmi, Inc., priority 2016, dated 2020).

Chain of human TYK2 (JH2domain-pseudokinase) (P29597 556-888): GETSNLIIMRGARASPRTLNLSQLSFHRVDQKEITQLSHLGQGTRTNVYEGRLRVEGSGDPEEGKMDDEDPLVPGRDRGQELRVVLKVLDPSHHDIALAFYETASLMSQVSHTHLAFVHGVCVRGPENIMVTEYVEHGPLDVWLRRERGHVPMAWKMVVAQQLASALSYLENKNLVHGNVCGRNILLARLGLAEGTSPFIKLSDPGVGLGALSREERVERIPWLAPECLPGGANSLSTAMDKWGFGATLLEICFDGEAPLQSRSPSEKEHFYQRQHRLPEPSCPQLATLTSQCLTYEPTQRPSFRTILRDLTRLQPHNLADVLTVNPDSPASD

The experiment addresses human TYK2 (JH2domain-pseudokinase) (Homo sapiens (Human), UniProt P29597). The experiment in a line: TYK2 JH2 Domain Binding Assay (KINOMEscan, DiscoveRx). The conditions noted are these: 11-point dilution, duplicate. In a few lines:
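TYK2 JH2 (G556–D888)–NFkB DBD fusion, DNA-tagged, from HEK293 extracts (<0.1 nM) competed against immobilised biotinylated ligand for 1 h at room temperature, 0.9% DMSO. Bead-retained kinase quantified by qPCR; Kd from 11-point 3-fold series (top 30,000 nM, duplicate), Hill fit with slope −1.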
On to `CP(C)(=O)c1ccccc1Nc1cc(NC(=O)C2CC2)nc2[nH]c(C(F)F)nc12` [I-242, N-(2-(difluoromethyl)-7-((2-(dimethylphosphoryl)phenyl)amino)-3H-imidazo[4,5-b]pyridin-5-yl)cyclopropanecarboxamide], for which the Kd (commonly the free concentration of one partner at which half of the binding sites on the other are occupied at equilibrium, for simple one-to-one binding) lay in the range of 500 to 1000 pM.
Take `Cc1nc2c(Nc3ccccc3P(C)(C)=O)cc(NC(=O)C3CC3)nc2[nH]1` [I-243, N-(7-((2-(dimethylphosphoryl)phenyl)amino)-2-methyl-3H-imidazo[4,5-b]pyridin-5-yl)cyclopropanecarboxamide]: the Kd is > 10000 pM.
As for `Cn1cnc(-c2ccc(Nc3cc(NC(=O)[C@H]4CC4(F)F)nc4[nH]c(C(F)F)nc34)c(S(C)(=O)=O)c2)c1` [I-244, (R)—N-(2-(difluoromethyl)-7-((4-(1-methyl-1H-imidazol-4-yl)-2-(methylsulfonyl)phenyl)amino)-3H-imidazo[4,5-b]pyridin-5-yl)-2,2-difluorocyclopropane-1-carboxamide], the figure is 500 to 1000 pM; as for `Cn1cnc(-c2ccc(Nc3cc(NC(=O)[C@@H]4CC4(F)F)nc4[nH]c(C(F)F)nc34)c(S(C)(=O)=O)c2)c1` [I-245, (S)—N-(2-(difluoromethyl)-7-((4-(1-methyl-1H-imidazol-4-yl)-2-(methylsulfonyl)phenyl)amino)-3H-imidazo[4,5-b]pyridin-5-yl)-2,2-difluorocyclopropane-1-carboxamide], 1000 to 10000 pM.
With `Cc1cn(C)nc1-c1ccc(Nc2cc(NC(=O)C3CC3)nc3[nH]c(C(F)F)nc23)c(S(C)(=O)=O)c1` [I-246, N-(2-(difluoromethyl)-7-((4-(1,4-dimethyl-1H-pyrazol-3-yl)-2-(methylsulfonyl)phenyl)amino)-3H-imidazo[4,5-b]pyridin-5-yl)cyclopropanecarboxamide], the Kd is < 100 pM.
As for `CS(=O)(=O)c1cc([C@@H]2CCCCO2)ccc1Nc1cc(NC(=O)C2CC2)nc2[nH]c(C(F)F)nc12` [I-247, (S)—N-(2-(difluoromethyl)-7-((2-(methylsulfonyl)-4-(tetrahydro-2H-pyran-2-yl)phenyl)amino)-3H-imidazo[4,5-b]pyridin-5-yl)cyclopropanecarboxamide], the figure is 100 to 500 pM.
As for `CS(=O)(=O)c1cc([C@H]2CCCCO2)ccc1Nc1cc(NC(=O)C2CC2)nc2[nH]c(C(F)F)nc12` [I-248, (R)—N-(2-(difluoromethyl)-7-((2-(methylsulfonyl)-4-(tetrahydro-2H-pyran-2-yl)phenyl)amino)-3H-imidazo[4,5-b]pyridin-5-yl)cyclopropanecarboxamide], the figure is < 100 pM.
As for `Cc1nc2c(Nc3ccccc3N(C(F)F)S(C)(=O)=O)cc(Nc3cccc(C#N)n3)nc2[nH]1` [I-249, N-(2-((5-((6-cyanopyridin-2-yl)amino)-2-methyl-3H-imidazo[4,5-b]pyridin-7-yl)amino)phenyl)-N-(difluoromethyl)methanesulfonamide], the figure is 1000 to 10000 pM; as for `Cc1nc2c(Nc3ccc(-c4cn(C)cn4)cc3S(C)(=O)=O)cc(NC(=O)[C@@H]3C[C@@H]3F)nc2[nH]1` [I-250, (1S,2S)-2-fluoro-N-(2-methyl-7-((4-(1-methyl-1H-imidazol-4-yl)-2-(methylsulfonyl)phenyl)amino)-3H-imidazo[4,5-b]pyridin-5-yl)cyclopropane-1-carboxamide], < 100 pM; as for `Cc1nc2c(Nc3ccc(-c4cn(C)cn4)cc3S(C)(=O)=O)cc(NC(=O)[C@H]3C[C@H]3F)nc2[nH]1` [I-251, (1R,2R)-2-fluoro-N-(2-methyl-7-((4-(1-methyl-1H-imidazol-4-yl)-2-(methylsulfonyl)phenyl)amino)-3H-imidazo[4,5-b]pyridin-5-yl)cyclopropane-1-carboxamide], 100 to 500 pM.
The compound `CS(=O)(=O)c1cc([C@H]2CCCOC2)ccc1Nc1cc(NC(=O)C2CC2)nc2[nH]c(C(F)F)nc12` [I-252, (R)—N-(2-(difluoromethyl)-7-((2-(methylsulfonyl)-4-(tetrahydro-2H-pyran-3-yl)phenyl)amino)-3H-imidazo[4,5-b]pyridin-5-yl)cyclopropanecarboxamide] showed a Kd of 1000 to 10000 pM.
As for `CS(=O)(=O)c1cc([C@@H]2CCCOC2)ccc1Nc1cc(NC(=O)C2CC2)nc2[nH]c(C(F)F)nc12` [I-253, (S)—N-(2-(difluoromethyl)-7-((2-(methylsulfonyl)-4-(tetrahydro-2H-pyran-3-yl)phenyl)amino)-3H-imidazo[4,5-b]pyridin-5-yl)cyclopropanecarboxamide], the figure is 100 to 500 pM.
As for `Cc1nc2c(Nc3ccc([C@@H]4CCCOC4)cc3S(C)(=O)=O)cc(NC(=O)C3CC3)nc2[nH]1` [I-255, (S)—N-(2-methyl-7-((2-(methylsulfonyl)-4-(tetrahydro-2H-pyran-3-yl)phenyl)amino)-3H-imidazo[4,5-b]pyridin-5-yl)cyclopropanecarboxamide], the figure is 100 to 500 pM; as for `Cc1nc2c(Nc3ccc([C@H]4CCCCO4)cc3S(C)(=O)=O)cc(NC(=O)[C@H]3CC3(F)F)nc2[nH]1` [I-256, (R)-2,2-difluoro-N-(2-methyl-7-((2-(methylsulfonyl)-4-((R)-tetrahydro-2H-pyran-2-yl)phenyl)amino)-3H-imidazo[4,5-b]pyridin-5-yl)cyclopropane-1-carboxamide], 500 to 1000 pM.
For `Cc1nc2c(Nc3ccc([C@H]4CCCCO4)cc3S(C)(=O)=O)cc(NC(=O)[C@@H]3CC3(F)F)nc2[nH]1` [I-257, (S)-2,2-difluoro-N-(2-methyl-7-((2-(methylsulfonyl)-4-((R)-tetrahydro-2H-pyran-2-yl)phenyl)amino)-3H-imidazo[4,5-b]pyridin-5-yl)cyclopropane-1-carboxamide], the Kd was 1000 to 10000 pM.
With `CS(=O)(=O)c1cc(C(F)(F)F)ccc1Nc1cc(NC(=O)C2CC2)nc2[nH]c(C(F)F)nc12` [I-258, N-(2-(difluoromethyl)-7-((2-(methylsulfonyl)-4-(trifluoromethyl)phenyl)amino)-3H-imidazo[4,5-b]pyridin-5-yl)cyclopropanecarboxamide], the Kd lay in the range of 1000 to 10000 pM.
The compound `Cc1nc2c(Nc3ccc(C(F)(F)F)cc3S(C)(=O)=O)cc(NC(=O)C3CC3)nc2[nH]1` [I-259, N-(2-methyl-7-((2-(methylsulfonyl)-4-(trifluoromethyl)phenyl)amino)-3H-imidazo[4,5-b]pyridin-5-yl)cyclopropanecarboxamide] yielded a Kd of 1000 to 10000 pM.
As to `Cc1nc2c(Nc3ccc(-c4cncn4C)cc3S(C)(=O)=O)cc(NC(=O)[C@@H]3C[C@@H]3F)nc2[nH]1` [I-260, (1S,2S)-2-fluoro-N-(2-methyl-7-((4-(1-methyl-1H-imidazol-5-yl)-2-(methylsulfonyl)phenyl)amino)-3H-imidazo[4,5-b]pyridin-5-yl)cyclopropane-1-carboxamide], the dissociation constant (Kd) is < 100 pM.
As for `Cc1nc2c(Nc3ccc(-c4cncn4C)cc3S(C)(=O)=O)cc(NC(=O)[C@H]3C[C@H]3F)nc2[nH]1` [I-261, (1R,2R)-2-fluoro-N-(2-methyl-7-((4-(1-methyl-1H-imidazol-5-yl)-2-(methylsulfonyl)phenyl)amino)-3H-imidazo[4,5-b]pyridin-5-yl)cyclopropane-1-carboxamide], the figure is 100 to 500 pM.
As for `Cc1nc2c(Nc3ccc(-c4nn(C)cc4C)cc3S(C)(=O)=O)cc(NC(=O)[C@@H]3C[C@@H]3F)nc2[nH]1` [I-262, (1S,2S)—N-(7-((4-(1,4-dimethyl-1H-pyrazol-3-yl)-2-(methylsulfonyl)phenyl)amino)-2-methyl-3H-imidazo[4,5-b]pyridin-5-yl)-2-fluorocyclopropane-1-carboxamide], the figure is 100 to 500 pM.
As to `Cc1nc2c(Nc3ccc(-c4nn(C)cc4C)cc3S(C)(=O)=O)cc(NC(=O)[C@H]3C[C@H]3F)nc2[nH]1` [I-263, (1R,2R)—N-(7-((4-(1,4-dimethyl-1H-pyrazol-3-yl)-2-(methylsulfonyl)phenyl)amino)-2-methyl-3H-imidazo[4,5-b]pyridin-5-yl)-2-fluorocyclopropane-1-carboxamide], the Kd was < 100 pM.
As for `Cc1nc2c(Nc3ccc(-c4cnn(C)c4C)cc3S(C)(=O)=O)cc(NC(=O)C3CC3)nc2[nH]1` [I-265, N-(7-((4-(1,5-dimethyl-1H-pyrazol-4-yl)-2-(methylsulfonyl)phenyl)amino)-2-methyl-3H-imidazo[4,5-b]pyridin-5-yl)cyclopropanecarboxamide], the figure is < 100 pM.
For `COc1c(Nc2cc(NC(=O)[C@@H]3C[C@@H]3F)nc3[nH]c(C)nc23)cccc1-c1ncn(C)n1` [I-266, (1S,2S)-2-fluoro-N-(7-((2-methoxy-3-(1-methyl-1H-1,2,4-triazol-3-yl)phenyl)amino)-2-methyl-3H-imidazo[4,5-b]pyridin-5-yl)cyclopropane-1-carboxamide] the value was 500 to 1000 pM; for `COc1c(Nc2cc(NC(=O)[C@H]3C[C@H]3F)nc3[nH]c(C)nc23)cccc1-c1ncn(C)n1` [I-267, (1R,2R)-2-fluoro-N-(7-((2-methoxy-3-(1-methyl-1H-1,2,4-triazol-3-yl)phenyl)amino)-2-methyl-3H-imidazo[4,5-b]pyridin-5-yl)cyclopropane-1-carboxamide], 1000 to 10000 pM.
Compound `Cc1nc2c(Nc3ccc(-c4cnn(C)c4)cc3N(C)S(C)(=O)=O)cc(NC(=O)[C@@H]3C[C@@H]3F)nc2[nH]1` [I-268, (1S,2S)-2-fluoro-N-(2-methyl-7-((4-(1-methyl-1H-pyrazol-4-yl)-2-(N-methylmethylsulfonamido)phenyl)amino)-3H-imidazo[4,5-b]pyridin-5-yl)cyclopropane-1-carboxamide] displayed a Kd of 100 to 500 pM.
As for `Cc1nc2c(Nc3ccc(-c4cnn(C)c4)cc3N(C)S(C)(=O)=O)cc(NC(=O)[C@H]3C[C@H]3F)nc2[nH]1` [I-269, (1R,2R)-2-fluoro-N-(2-methyl-7-((4-(1-methyl-1H-pyrazol-4-yl)-2-(N-methylmethylsulfonamido)phenyl)amino)-3H-imidazo[4,5-b]pyridin-5-yl)cyclopropane-1-carboxamide], the figure is 100 to 500 pM.
